Data as given in the supplement of paper PMC11451515.

Key:
Details in all cases: 48 h
NOMO1 [1] = assay: AUC of viability dose-response curve (% viability x log10 dose units); higher = less sensitive
Outline: (§1)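 Area under the curve was integrated by trapezoidal rule from a log-logistic fit of normalised viability, with curves exceeding full viability scaled and quality-control failures removed. The fit had four parameters over log10 doses. Viability came from CellTiter-Glo One luminescence, normalised per plate to DMSO and cell-free wells, after leukemia cells adapted to each medium (500 or 1000 cells/well, 1536-well plates) were exposed to library compounds in DMSO for 48 h at 37°C. The 11 threefold doses ran from 47 μM to 0.79 nM.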

SEM cells [2] = assay: as above
Outline: as §1

P12-Ichikawa [3] = assay: as above
Outline: as §1

NOMO1 [4] = assay: cell viability relative to DMSO control; higher = less cytotoxic
Outline: (§2)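 Viability was expressed as a per-plate percentage of DMSO wells, with cell-free wells as background. Leukemia cells (NOMO1 or SEM at 500 cells/well, P12-Ichikawa at 1000 cells/well) were adapted for at least four passages in each medium and seeded in 1536-well plates (5 μl). Library compounds in DMSO were pin-dosed over an 11-point threefold series from 47 μM to 0.79 nM, and CellTiter-Glo One luminescence was read after 48 h at 37°C.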

SEM cells [5] = assay: as above
Outline: as §2

P12-Ichikawa [6] = assay: as above
Outline: as §2

COC(=O)C1=C(C)NC(C)=C(C(=O)OCCN2CCN(C(c3ccccc3)c3ccccc3)CC2)C1c1cccc([N+](=O)[O-])c1.Cl.Cl (centres undefined)
AUC of viability dose-response curve
Details | NOMO1 [1] | P12-Ichikawa [3] | SEM cells [2]
HPLM + 10% dialyzed FBS | 472 | 447 | 463
RPMI 5 mM glucose + 10% FBS | 464 | 464 | 421
RPMI 5 mM glucose + 10% dialyzed FBS | 445 | 442 | 453

CC(C)NCC(O)c1ccc(O)c(O)c1 (centres undefined)
AUC of viability dose-response curve
Details | NOMO1 [1] | P12-Ichikawa [3] | SEM cells [2]
HPLM + 10% dialyzed FBS | 376 | 389 | 455
RPMI 5 mM glucose + 10% FBS | 389 | 394 | 427
RPMI 5 mM glucose + 10% dialyzed FBS | 391 | 407 | 457

COc1cc(C(C)C)c(Oc2cnc(NC(CO)CO)nc2N)cc1I
AUC of viability dose-response curve
Details | NOMO1 [1] | P12-Ichikawa [3] | SEM cells [2]
HPLM + 10% dialyzed FBS | 468 | 464 | 458
RPMI 5 mM glucose + 10% FBS | 436 | 466 | 442
RPMI 5 mM glucose + 10% dialyzed FBS | 457 | 452 | 453

O=c1cc(O)c(Cl)c[nH]1
AUC of viability dose-response curve
Details | NOMO1 [1] | P12-Ichikawa [3] | SEM cells [2]
HPLM + 10% dialyzed FBS | 378 | 391 | 455
RPMI 5 mM glucose + 10% FBS | 396 | 395 | 416
RPMI 5 mM glucose + 10% dialyzed FBS | 394 | 417 | 453

Fc1ccc(CNc2ncnc3ccc(F)cc23)cc1
AUC of viability dose-response curve
Details | HPLM + 10% dialyzed FBS | RPMI 5 mM glucose + 10% FBS | RPMI 5 mM glucose + 10% dialyzed FBS
NOMO1 [1] | 445 | 452 | 419
P12-Ichikawa [3] | 453 | 429 | 429

CCN1CCCC1CNC(=O)c1cc(S(=O)(=O)CC)c(N)cc1OC (centres undefined)
AUC of viability dose-response curve
Details | NOMO1 [1] | P12-Ichikawa [3] | SEM cells [2]
HPLM + 10% dialyzed FBS | 458 | 463 | 474
RPMI 5 mM glucose + 10% FBS | 459 | 461 | 474
RPMI 5 mM glucose + 10% dialyzed FBS | 469 | 469 | 453

O=C(NOC[C@H](O)CO)c1ccc(F)c(F)c1Nc1ccc(I)cc1F
AUC of viability dose-response curve
Details | NOMO1 [1] | P12-Ichikawa [3] | SEM cells [2]
HPLM + 10% dialyzed FBS | 261 | 434 | 354
RPMI 5 mM glucose + 10% FBS | 274 | 384 | 362
RPMI 5 mM glucose + 10% dialyzed FBS | 260 | 445 | 347

O=C1Nc2ccccc2/C1=C1\Nc2ccccc2C1=O
AUC of viability dose-response curve
Details | HPLM + 10% dialyzed FBS | RPMI 5 mM glucose + 10% FBS | RPMI 5 mM glucose + 10% dialyzed FBS
NOMO1 [1] | 448 | 447 | 442
P12-Ichikawa [3] | 459 | 467 | 471

cell viability [%]
Details | NOMO1 [4] | P12-Ichikawa [6] | SEM cells [5]
HPLM + 10% dialyzed FBS, 0.000781 µM | 105 | 106 | 82.1
HPLM + 10% dialyzed FBS, 0.00234 µM | 116 | 106 | 85.1
HPLM + 10% dialyzed FBS, 0.00702 µM | 112 | 109 | 85.5
HPLM + 10% dialyzed FBS, 0.0211 µM | 112 | 102 | 84.9
HPLM + 10% dialyzed FBS, 0.0632 µM | 99.1 | 104 | 80.4
HPLM + 10% dialyzed FBS, 0.19 µM | 97.7 | 101 | 64.2
HPLM + 10% dialyzed FBS, 0.569 µM | 110 | 104 | 63.3
HPLM + 10% dialyzed FBS, 1.71 µM | 96.4 | 103 | 75
HPLM + 10% dialyzed FBS, 5.12 µM | 112 | 94.9 | 73.9
HPLM + 10% dialyzed FBS, 15.4 µM | 102 | 104 | 86.8
HPLM + 10% dialyzed FBS, 46.1 µM | 90.5 | 97.9 | 69.8
RPMI 5 mM glucose + 10% FBS, 0.000781 µM | 93 | 101 | 104
RPMI 5 mM glucose + 10% FBS, 0.00234 µM | 87.4 | 111 | 87.4
RPMI 5 mM glucose + 10% FBS, 0.00702 µM | 97.6 | 103 | 90.6
RPMI 5 mM glucose + 10% FBS, 0.0211 µM | 103 | 105 | 87.5
RPMI 5 mM glucose + 10% FBS, 0.0632 µM | 103 | 110 | 90.1
RPMI 5 mM glucose + 10% FBS, 0.19 µM | 94.7 | 108 | 79.4
RPMI 5 mM glucose + 10% FBS, 0.569 µM | 93.7 | 104 | 84
RPMI 5 mM glucose + 10% FBS, 1.71 µM | 88.7 | 104 | 71.2
RPMI 5 mM glucose + 10% FBS, 5.12 µM | 96.2 | 95.9 | 81.4
RPMI 5 mM glucose + 10% FBS, 15.4 µM | 85.6 | 99.7 | 78.4
RPMI 5 mM glucose + 10% FBS, 46.1 µM | 86.9 | 98 | 77.7
RPMI 5 mM glucose + 10% dialyzed FBS, 0.000781 µM | 98.2 | 99.3 | 89.2
RPMI 5 mM glucose + 10% dialyzed FBS, 0.00234 µM | 95.9 | 102 | 91.7
RPMI 5 mM glucose + 10% dialyzed FBS, 0.00702 µM | 109 | 105 | 85.2
RPMI 5 mM glucose + 10% dialyzed FBS, 0.0211 µM | 100 | 91.2 | 85.4
RPMI 5 mM glucose + 10% dialyzed FBS, 0.0632 µM | 88.1 | 104 | 82.5
RPMI 5 mM glucose + 10% dialyzed FBS, 0.19 µM | 93.9 | 97.1 | 70.6
RPMI 5 mM glucose + 10% dialyzed FBS, 0.569 µM | 89.4 | 106 | 60.6
RPMI 5 mM glucose + 10% dialyzed FBS, 1.71 µM | 94.3 | 94.9 | 67
RPMI 5 mM glucose + 10% dialyzed FBS, 5.12 µM | 89.4 | 93.1 | 74.4
RPMI 5 mM glucose + 10% dialyzed FBS, 15.4 µM | 89.1 | 102 | 86
RPMI 5 mM glucose + 10% dialyzed FBS, 46.1 µM | 84.9 | 83.4 | 80.3

O=C(NCc1ccncc1)C12C[C@H]3C[C@@H](C1)CC(c1ccc(Cl)cc1)(C3)C2
AUC of viability dose-response curve
Details | NOMO1 [1] | P12-Ichikawa [3] | SEM cells [2]
HPLM + 10% dialyzed FBS | 419 | 415 | 414
RPMI 5 mM glucose + 10% FBS | 453 | 439 | 389
RPMI 5 mM glucose + 10% dialyzed FBS | 451 | 438 | 420
